Laboratory results published in patent US7667052B2 (Eisai R&D Management Co., Ltd., priority 2003, dated 2010).
Where two headings read alike, the source gives them in different places.

Experiments:
[1] = test system: VEGF production in U251 human glioma cell; test: VEGF production suppressing action under low oxygen, ELISA; format: cell-based; conditions: for VEGF production suppressing action: IC50: U251, low oxygen (2% O2) incubator 18 hours; for VEGF production suppression, in words: U251, low oxygen stimulation
Protocol: U251 human glioma cell cultured in DULBECCO-modified eagle medium (DMEM; manufactured by SIGMA Co., Ltd.) containing 10% fetal calf serum, penicillin (100 unit/ml) and streptomycin (100 μg/ml) was dispensed in 96-well plates by 4×10^4 cells/well. After culturing at 37° C. overnight in a CO2 incubator (5% CO2), the media were removed, and 180 μl of the above-mentioned incubation solution was charged. After adding 20 μL of the above-mentioned incubation solution containing the test compound diluted with 3-fold succession, they were incubated in a low oxygen (2% O2) incubator for 18 hours. The supernatants thereof were measured by an ELISA kit (Immunobiology Research Institute).
Concentration at which the amount of VEGF expressed by low oxygen stimulation was suppressed to 50% (IC50 value) was determined and results are shown in Table 9. […] The activities of 11107F and 11107G were very weak.

[2] = test system: human breast cancer BSY-1 cell; test: Solid cancer proliferation suppressing action, subcutaneous transplant; format: in vivo, mice; conditions: 10 mg/kg once intravenous
Protocol: In order to study solid cancer proliferation suppressing action of 11107B in vivo, human breast cancer BSY-1 cell was transplanted to the subcutaneous body sides of mice. The animals were grouped so that the average of the volumes of the respective groups became uniform, when it reached about 100 mm^3. Control group was made as 10 mice and 11107B-administering groups were made as 5 mice. 11107B was administrated for the 11107B-administering groups once by intravenous injection so as to be 10 mg/kg, and a vehicle was administered to the control group. The tumor volumes on the fifth day, eighth day, 12th day and 15th day were measured, and relative tumor volumes were determined setting the tumor volume at the initiation of administration as 1.

[3] = test system: transcription from VEGF promoter; test: VEGF transcription-suppressing activity, VEGF-PLAP reporter in U251/1-8 cell; format: cell-based; conditions: Homo sapiens, U-251, U251/1-8 cell, PLAP activity, low oxygen 18 hours
In short: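 U251 glioma clone stably carrying a ~2.3 kb human VEGF promoter–secreted PLAP reporter, 4×10^4 cells/well, exposed to 3-fold dilutions of compound for 18 h under low oxygen. Supernatant PLAP read by chemiluminescence at pH 10.0; IC50 = 50% suppression, normoxia 0%, hypoxia 100%.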

[4] = Solubility (physico-chemical properties of the 11107 analogues); conditions: in dimethylsulfoxide, pyridine, methanol, acetone and water
P388 mouse leukemia cell = conditions: Seki-Asano M. et al, J. Antibiotics Vol. 47, 1395-1401, 1994; cited from earlier work
[5] = read-out: IC50 values of VEGF transcription-suppressing activity (range given)
[6] = read-out: VEGF transcription suppressing activity (IC50: nM)

| SMILES | IC50 [3, 5] | Solubility [4] | further results |
| --- | --- | --- | --- |
| CCC(O)C(C)C1OC1CC(C)/C=C/C=C(\C)C1OC(=O)CC(O)CCC(C)(O)C(O)/C=C/C1C (stereo not shown) [11107 A] |  |  | VEGF production suppressing action: IC50 [1]: 111 ng/mL |
| CCC(O)C(C)C1OC1CC(C)/C=C/C=C(\C)C1OC(=O)CC(O)CCC(C)(O)C(OC(C)=O)/C=C/C1C (stereo not shown) [11107 B] |  |  | relative tumor volume ([2]; day 1 after the administration (volume at initiation of administration set as 1)): 1; relative tumor volume ([2]; day 5 after the administration): 1.08; relative tumor volume ([2]; day 8 after the administration): 1.28; relative tumor volume ([2]; day 12 after the administration): 1.40; relative tumor volume ([2]; day 15 after the administration): 1.70; VEGF production suppressing action: IC50 [1]: 0.8 ng/mL |
| CCC(=O)C(C)C1OC1CC(C)/C=C/C=C(\C)C1OC(=O)CC(O)CCC(C)(O)C(OC(C)=O)/C=C/C1C (stereo not shown) [11107 C] |  |  | VEGF production suppressing action: IC50 [1]: 3.0 ng/mL |
| CCC(O)C(C)C1OC1CC(C)(O)/C=C/C=C(\C)C1OC(=O)CC(O)CCC(C)(O)C(OC(C)=O)/C=C/C1C (stereo not shown) [11107 D] |  |  | VEGF production suppressing action: IC50 [1]: 3.2 ng/mL |
| CCC(O)C(C)(O)C1OC1CC(C)/C=C/C=C(\C)C1OC(=O)CC(O)CCC(C)(O)C(OC(C)=O)/C=C/C1C (stereo not shown) [11107 E] |  |  | VEGF production suppressing action: IC50 [1]: 36.3 ng/mL |
| CCC(=O)C(C)C1OC1CC(C)/C=C/C=C(\C)C1OC(=O)CC(O)CCC(C)(O)C(OC(C)=O)/C=C/C1C (stereo not shown) [11107C, (8E,12E,14E)-7-Acetoxy-3,6-dihydroxy-6,10,12,16,20-pentamethyl-21-oxo-18,19-epoxytricosa-8,12,14-trien-11-olide] | 1 to 100 nM |  | IC50 [3, 6]: 8.2 nM; VEGF production suppression, in words [1]: strong successive to 11107B |
| CCC(O)C(C)C1OC1CC(C)(O)/C=C/C=C(\C)C1OC(=O)CC(O)CCC(C)(O)C(OC(C)=O)/C=C/C1C (stereo not shown) [11107D] | 1 to 100 nM | soluble in dimethylsulfoxide, pyridine, methanol and acetone, and slightly soluble in water | IC50 [3, 6]: 6.6 nM; VEGF production suppression, in words [1]: strong successive to 11107B |
| CCC(O)C(C)C1OC1CC(C)(O)/C=C/C=C(\C)C1OC(=O)CC(O)CCC(C)(O)C(O)/C=C/C1C (stereo not shown) [11107F] |  |  | VEGF production suppression, in words [1]: very weak |
| CCC(O)C(C)(O)C1OC1CC(C)/C=C/C=C(\C)C1OC(=O)CC(O)CCC(C)(O)C(O)/C=C/C1C (stereo not shown) [11107G] |  | soluble in dimethylsulfoxide, pyridine, methanol and acetone, and slightly soluble in water | VEGF production suppression, in words [1]: very weak |
| CCC(O)C(C)C1OC1CC(C)/C=C/C=C(\C)C1OC(=O)CC(O)CCC(O)(COC(C)=O)C(OC(C)=O)/C=C/C1C (stereo not shown) [11107N] | 1 to 100 nM | soluble in dimethylsulfoxide, pyridine, methanol and acetone, and slightly soluble in water |  |
| CC(=O)OC1/C=C/C(C)C(/C(C)=C/C=C/C(C)CC(O)/C=C(\C)C(=O)C(C)O)OC(=O)CC(O)CCC1(C)O (stereo not shown) [11107Q] | 1 to 100 nM | soluble in dimethylsulfoxide, pyridine, methanol and acetone, and slightly soluble in water |  |
| CC(=O)OC1/C=C/C(C)C(/C(C)=C/C=C/C(C)CC2OC2C(C)O)OC(=O)CC(O)CCC1(C)O (stereo not shown) [11107R] | 1 to 100 nM | soluble in dimethylsulfoxide, pyridine, methanol and acetone, and slightly soluble in water |  |
| CCC(O)CC1OC1CC(C)/C=C/C=C(\C)C1OC(=O)CC(O)CCC(C)(O)C(OC(C)=O)/C=C/C1C (stereo not shown) [11107T] | 1 to 100 nM | soluble in dimethylsulfoxide, pyridine, methanol and acetone, and slightly soluble in water |  |
| CCC(O)C(C)C1OC1CC/C=C/C=C(\C)C1OC(=O)CC(O)CCC(C)(O)C(OC(C)=O)/C=C/C1C (stereo not shown) [11107U] | 1 to 100 nM | soluble in dimethylsulfoxide, pyridine, methanol and acetone, and slightly soluble in water |  |
| CCC(O)C(C)C1OC1CC(C)/C=C/C=C/C1OC(=O)CC(O)CCC(C)(O)C(OC(C)=O)/C=C/C1C (stereo not shown) [11107W] | 1 to 100 nM | soluble in dimethylsulfoxide, pyridine, methanol and acetone, and slightly soluble in water |  |
| CCC(O)C(C)C1OC1CC(C)/C=C/C=C(\C)C1OC(=O)CC(O)CC(O)C(C)C(OC(C)=O)/C=C/C1C (stereo not shown) [11107Y] | 1 to 100 nM | soluble in dimethylsulfoxide, pyridine, methanol and acetone, and slightly soluble in water |  |
| CCC(O)C(C)C1OC1CC(C)/C=C/C=C(\C)C1C/C=C/C(OC(C)=O)C(C)(O)CCC(O)CC(=O)O1 (stereo not shown) [11107Z] | 1 to 100 nM | soluble in dimethylsulfoxide, pyridine, methanol and acetone, and slightly soluble in water |  |
| CCC(OC)C(C)C1OC1C(O)C(C)/C=C/C=C(\C)C1OC(=O)CC(O)CCC(C)(O)C(OC(C)=O)/C=C/C1C (stereo not shown) [FD895] |  |  | effect in an animal experiment using P388 mouse leukemia cell (P388 mouse leukemia cell): ineffective |
